Assays:
Format in all cases: cell-based
[1] = system: A431 (epidermoid carcinoma); assay: Antiproliferative activity (CCK-8 cell viability), A431; conditions: Homo sapiens, 72 h, read-out: Antiproliferative activity in cancerous cells, A431 (inhibition of cell growth); for inhibition at 3.3 µM: A-431, Compound concentration: 3.3 μM; for inhibition at 10 µM: A-431, Compound concentration: 10 μM; for inhibition at 30 µM: A-431, Compound concentration: 30 μM
Summary of the method: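 Cell viability of compound-treated A431 cells was measured with a Cell Counting Kit-8. Each well received 10 μL of CCK-8 after 72 h of compound exposure, followed by 4 h incubation at 37° C. and a 450 nm plate-reader measurement. Percent viability was calculated relative to DMSO controls across replicates.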

[2] = system: HeLa (cervical cancer); assay: Antiproliferative activity (CCK-8 cell viability), HeLa; conditions: Homo sapiens, 72 h, read-out: Antiproliferative activity in cancerous cells, HELA (inhibition of cell growth); for inhibition at 3.3 µM: Compound concentration: 3.3 μM; for inhibition at 10 µM: Compound concentration: 10 μM; for inhibition at 30 µM: Compound concentration: 30 μM
Summary of the method: (§1)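 Cells were seeded at 2,000-5,000/well (HeLa in MEM, HepG2 and SW480 in DMEM, A549 in F-12K, all with 10% FBS) and treated with compound at 3.3, 10 or 30 μM for 72 h at 37° C. CCK-8 was added for 4 h, absorbance was read at 450 nm, and viability was expressed relative to DMSO-treated wells.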

[3] = system: SW480 (colon cancer); assay: Antiproliferative activity (CCK-8 cell viability), SW480; conditions: Homo sapiens, 72 h, read-out: Antiproliferative activity in cancerous cells, SW480 (inhibition of cell growth); for inhibition at 3.3 µM: Compound concentration: 3.3 μM; for inhibition at 10 µM: Compound concentration: 10 μM; for inhibition at 30 µM: Compound concentration: 30 μM
Summary of the method: as §1

[4] = system: MDA-MB-231 (breast cancer); assay: Antiproliferative activity (CCK-8 cell viability), MDA-MB-231; conditions: Homo sapiens, 72 h, read-out: Antiproliferative activity in cancerous cells, MDA-MB-231 (inhibition of cell growth); for inhibition at 3.3 µM: Compound concentration: 3.3 μM; for inhibition at 10 µM: Compound concentration: 10 μM; for inhibition at 30 µM: Compound concentration: 30 μM
Summary of the method: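 In this CCK-8 viability assay, MDA-MB-231 cells maintained in Dulbecco's modified Eagle's medium containing 10% fetal bovine serum were placed in 96-well plates (2,000-5,000 cells/well) and treated with compound for 72 h at 37° C. A 4 h incubation with 10 μL CCK-8 followed, plates were read at 450 nm, and viability was expressed against DMSO vehicle wells across replicates.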

[5] = system: B16F10 (malignant melanoma); assay: Antiproliferative activity (CCK-8 cell viability), B16F10; conditions: Mus musculus, 72 h, read-out: Antiproliferative activity in cancerous cells, B16F10 (inhibition of cell growth); for inhibition at 3.3 µM: B16-F10, Compound concentration: 3.3 μM; for inhibition at 10 µM: B16-F10, Compound concentration: 10 μM; for inhibition at 30 µM: B16-F10, Compound concentration: 30 μM
Summary of the method: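 Attached B16F10 cells in 96-well plates were incubated with compound at 37° C for 72 h, followed by 10 μL CCK-8 reagent per well and a further 4 h incubation. A multi-well plate reader measured absorbance at 450 nm. Percent viability across replicates was calculated against DMSO vehicle-treated cells.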

[6] = system: A549 (lung adenocarcinoma); assay: Antiproliferative activity (CCK-8 cell viability), A549; conditions: Homo sapiens, 72 h, read-out: Antiproliferative activity in cancerous cells, A549 (inhibition of cell growth); for inhibition at 3.3 µM: Compound concentration: 3.3 μM; for inhibition at 10 µM: Compound concentration: 10 μM; for inhibition at 30 µM: Compound concentration: 30 μM
Summary of the method: as §1

[7] = system: HepG2 (liver cancer); assay: Antiproliferative activity (CCK-8 cell viability), HepG2; conditions: Homo sapiens, 72 h, read-out: Antiproliferative activity in cancerous cells, HepG2 (inhibition of cell growth); for inhibition at 3.3 µM: Compound concentration: 3.3 μM; for inhibition at 10 µM: Compound concentration: 10 μM; for inhibition at 30 µM: Compound concentration: 30 μM
Summary of the method: as §1

| Compound | inhibition at 3.3 µM [1] [%] | inhibition at 10 µM [1] [%] | inhibition at 30 µM [1] [%] | inhibition at 3.3 µM [2] [%] | inhibition at 10 µM [2] [%] | inhibition at 30 µM [2] [%] | inhibition at 3.3 µM [3] [%] | inhibition at 10 µM [3] [%] | inhibition at 30 µM [3] [%] | inhibition at 3.3 µM [4] [%] | inhibition at 10 µM [4] [%] | inhibition at 30 µM [4] [%] | inhibition at 3.3 µM [5] [%] | inhibition at 10 µM [5] [%] | inhibition at 30 µM [5] [%] | inhibition at 3.3 µM [6] [%] | inhibition at 10 µM [6] [%] | inhibition at 30 µM [6] [%] | inhibition at 3.3 µM [7] [%] | inhibition at 10 µM [7] [%] | other results |
| --- | --- | --- | --- | --- | --- | --- | --- | --- | --- | --- | --- | --- | --- | --- | --- | --- | --- | --- | --- | --- | --- |
| CC1=C(CC(=O)O)c2cc(F)ccc2/C1=C\c1cccc(-c2ccc(C(F)(F)F)cc2)c1 [D1, (Z)-2-(5-Fluoro-2-methyl-1-((4′-(trifluoromethyl)-[1,1′-biphenyl]-3-yl)-methylene)-1H-inden-3-yl)acetic acid] | 30 to 50 | ≥ 50 | ≥ 50 | ≥ 50 | ≥ 50 | ≥ 50 | < 30 | ≥ 50 | ≥ 50 | < 30 | ≥ 50 | ≥ 50 | < 30 | ≥ 50 | ≥ 50 | < 30 | ≥ 50 | ≥ 50 | 30 to 50 | ≥ 50 | inhibition at 30 µM [7]: ≥ 50% |
| CC1=C(CC(=O)O)c2c(F)ccc(F)c2/C1=C\c1ccc(C(C)C)cc1 [D4, (Z)-2-(4,7-Difluoro-1-(4-isopropylbenzylidene)-2-methyl-1H-inden-3-yl)acetic acid] | < 30 | < 30 | ≥ 50 | ≥ 50 | ≥ 50 | ≥ 50 | < 30 | < 30 | ≥ 50 | 30 to 50 | 30 to 50 | ≥ 50 | 30 to 50 | ≥ 50 | ≥ 50 | < 30 | 30 to 50 | ≥ 50 | < 30 | < 30 | inhibition at 30 µM [7]: ≥ 50% |
| CC1=C(CC(=O)O)c2c(F)cc(F)cc2/C1=C\c1ccc(C(F)(F)F)cc1 [D5, (Z)-2-(4,6-Difluoro-2-methyl-1-(4-(trifluoromethyl)benzylidene)-1H-inden-3-yl)-acetic acid] | ≥ 50 | ≥ 50 | ≥ 50 | < 30 | ≥ 50 | ≥ 50 | < 30 | < 30 | < 30 | < 30 | 30 to 50 | ≥ 50 | < 30 | ≥ 50 | ≥ 50 | 30 to 50 | ≥ 50 | ≥ 50 | < 30 | < 30 | inhibition at 30 µM [7]: 30 to 50% |
| CCOCc1ccc(/C=C2/C(C)=C(CC(=O)O)c3cc(F)ccc32)cc1 [D10, (Z)-2-(1-(4-(Ethoxymethyl)benzylidene)-5-fluoro-2-methyl-1H-inden-3-yl)acetic acid] | ≥ 50 | ≥ 50 | ≥ 50 | 30 to 50 | ≥ 50 | ≥ 50 | 30 to 50 | 30 to 50 | 30 to 50 | < 30 | < 30 | 30 to 50 | 30 to 50 | 30 to 50 | 30 to 50 | 30 to 50 | 30 to 50 | 30 to 50 | < 30 | < 30 | inhibition at 30 µM [7]: 30 to 50% |
| CC1=C(CC(=O)O)c2cc(F)ccc2/C1=C\c1ccc(CO)cc1 [D11, (Z)-2-(5-Fluoro-1-(4-(hydroxymethyl)benzylidene)-2-methyl-1H-inden-3-yl)acetic acid] | < 30 | ≥ 50 | ≥ 50 | < 30 | < 30 | ≥ 50 | < 30 | ≥ 50 | ≥ 50 | ≥ 50 | ≥ 50 | ≥ 50 | < 30 | < 30 | < 30 | < 30 | ≥ 50 | ≥ 50 | < 30 | < 30 | inhibition at 30 µM [7]: < 30% |
| COc1ccc(/C=C2/C(C)=C(CC(=O)O)c3cc(F)ccc32)cc1Cl [D12, (Z)-2-(1-(3-Chloro-4-methoxybenzylidene)-5-fluoro-2-methyl-1H-inden-3-yl)acetic acid] | ≥ 50 | ≥ 50 | ≥ 50 | < 30 | 30 to 50 | ≥ 50 | < 30 | < 30 | ≥ 50 | < 30 | 30 to 50 | ≥ 50 | < 30 | 30 to 50 | ≥ 50 | < 30 | < 30 | ≥ 50 | < 30 | 30 to 50 | inhibition at 30 µM [7]: ≥ 50% |
| CC1=C(CC(=O)O)c2cc(F)ccc2/C1=C\c1ccc(-c2ccc(Cl)cc2)cc1 [D13, (Z)-2-(1-((4′-Chloro-[1,1′-biphenyl]-4-yl)methylene)-5-fluoro-2-methyl-1H-inden-3-yl)acetic acid] | < 30 | 30 to 50 | 30 to 50 | < 30 | ≥ 50 | ≥ 50 | 30 to 50 | 30 to 50 | 30 to 50 | < 30 | 30 to 50 | ≥ 50 | ≥ 50 | ≥ 50 | ≥ 50 | < 30 | < 30 | 30 to 50 | < 30 | < 30 | inhibition at 30 µM [7]: < 30% |
